The numbers were not newly measured in PubChem BioAssay AID1259410 (Chemical Carcinogenesis Research Information System (CCRIS), 2018), which cites them from elsewhere.

This data set concerns rodent tumor promotion studies, tumor incidence. As to the kind of experiment: CCRIS tumor promotion studies.

As to `CCCCCCCC/C=C\CCCCCCCC(=O)O`, the outcome (Carcinogen: 7,12-DIMETHYLBENZ(A)ANTHRACENE, Doses [Carcinogen]: TOP, Route [Carcinogen]: DERMAL, Route [Promoter]: DERMAL, Species: MOUSE, Strain/Sex: MALE,FEMALE) is “integumentary system (skin)”. On to `O=S1(=O)N=C(O)c2ccccc21`, for which the outcome by setting is: (Carcinogen: N-[4-(5-NITRO-2-FURYL)-2-THIAZOLYL]FORMAMIDE, 24554-26-5, Doses [Carcinogen]: 0.2% IN DIET FOR 6 WK, Doses [Promoter]: 0, 3.12% IN PROLAB DIET FOR 72 WK BEGINNING POST CARCINOGEN TREATMENT (STUDY DURATION: 78 WK), Route [Carcinogen]: ORAL, Route [Promoter]: ORAL, Species: RAT, Strain/Sex: F344/MALE) “urinary bladder: carcinoma”; (Carcinogen: N-[4-(5-NITRO-2-FURYL)-2-THIAZOLYL]FORMAMIDE, 24554-26-5, Doses [Carcinogen]: 0.2% IN DIET FOR 6 WK, Doses [Promoter]: 0, 5.2% IN PROLAB DIET FOR 72 WK BEGINNING POST CARCINOGEN TREATMENT (STUDY DURATION: 78 WK), Route [Carcinogen]: ORAL, Route [Promoter]: ORAL, Species: RAT, Strain/Sex: F344/MALE) “urinary bladder: carcinoma, carcinoma or papilloma”.

In the case of `Cn1cc[nH]c1=S`, the outcome (Carcinogen: Acrylonitrile, 79-06-1, Doses [Carcinogen]: 2-3 mg/kg in drinking water, study duration 2 mo, Doses [Promoter]: 100 mg/l in drinking water, study duration 2 mo, Route [Carcinogen]: Oral, Route [Promoter]: Oral, Species: Mouse, Strain/Sex: CD1/Female (20,?)/(30/ ?)) is “thyroid; no tumors”. Regarding `O=NN1CCCC1`, the outcome (Carcinogen: N-BUTYL-N-4(HYDROXYBUTYL)NITROSAMINE, 3817-11-6, Doses [Carcinogen]: 0.05% IN DRINKING WATER FOR 2 WK, Doses [Promoter]: 0, 0.02% IN DIET STARTING POST CARCINOGEN AND CONTINUING FOR 22 WK, LEFT URETER LIGATED 8 D POST CARCINOGEN (STUDY DURAT, Route [Carcinogen]: ORAL, Route [Promoter]: ORAL, Species: RAT, Strain/Sex: F344/MALE) was “bladder: papilloma”. As for `O=C1c2cccc(O)c2C(=O)c2c(O)cccc21`, the outcome (Carcinogen: 1,2-DIMETHYLHYDRAZINE, 540-73-8, Doses [Carcinogen]: 20 MG/KG BW 1/WK FOR 12 WK, Doses [Promoter]: 0, 0.2% IN DIET FOR 42 WK BEGINNING POST CARCINOGEN TREATMENT (STUDY DURATION: 54 WK), Route [Carcinogen]: SUBCUTANEOUS, Route [Promoter]: ORAL, Species: MOUSE, Strain/Sex: ICR/CD-1/MALE) is given as “colon: tumor; liver: tumor”. Consider `Cc1ccc(O)c(C(C)(C)C)c1`, for which the outcome (Carcinogen: N-BUTYL-N-(4-HYDROXYBUTYL)NITROSAMINE, 3817-11-6, Doses [Carcinogen]: 0.5% IN DRINKING WATER FOR 4 WK, Doses [Promoter]: 0, 1% IN DIET FOR 32 WK BEGINNING 3 D POST CARCINOGEN TREATMENT (STUDY DURATION: 36 WK), Route [Carcinogen]: ORAL, Route [Promoter]: ORAL, Species: RAT, Strain/Sex: F344/MALE) was “bladder: carcinoma, papilloma”. For the compound `C[S-].C[S-].N#[O+].N#[O+].N#[O+].N#[O+].[Fe].[Fe]`, the outcome by setting is: (Carcinogen: 7,12-DIMETHYLBENZ[A]ANTHRACENE, 57-97-6, Doses [Carcinogen]: 100 NMOL IN 0.2 ML ACETONE ONCE, Doses [Promoter]: 300 NMOL 2/WK FOR 37 WK (STUDY DURATION: 37 WK), Route [Carcinogen]: DERMAL, Route [Promoter]: DERMAL, Species: MOUSE, Strain/Sex: BALB/FEMALE) “skin: papilloma or carcinoma”; (Carcinogen: 7,12-DIMETHYLBENZ[A]ANTHRACENE, 57-97-6, Doses [Carcinogen]: 100 NMOL IN 0.2 ML ACETONE ONCE, Doses [Promoter]: 450 NMOL 2/WK FOR 37 WK (STUDY DURATION: 37 WK), Route [Carcinogen]: DERMAL, Route [Promoter]: DERMAL, Species: MOUSE, Strain/Sex: BALB/FEMALE) “skin: papilloma or carcinoma”; (Carcinogen: DIETHYLNITROSAMINE, 55-18-5, Doses [Carcinogen]: 25 MG/WK FOR 2 WK, Doses [Promoter]: 6 MG 2/WK FOR 114-669 D BEGINNING 2 WK POST LAST CARCINOGEN DOSE (STUDY DURATION: 669 D), Route [Carcinogen]: GAVAGE, Route [Promoter]: GAVAGE, Species: RAT, Strain/Sex: WISTAR) “forestomach: papilloma”. Take `Clc1c(Cl)c(Cl)c(Cl)c(Cl)c1Cl`: the outcome runs as follows: (Carcinogen: DIETHYLNITROSAMINE, 55-18-5, Doses [Carcinogen]: 0.015% IN DRINKING WATER FOR 3 WK, Doses [Promoter]: 0, 0.02% IN DIET (10.5 MG/KG/D) FOR 30 WK BEGINNING 2 WK AFTER LAST CARCINOGEN DOSE (STUDY DURATION: 35 WK), Route [Carcinogen]: ORAL, Route [Promoter]: ORAL, Species: RAT, Strain/Sex: F344/MALE) “liver: hepatocellular carcinoma”; (Carcinogen: DIETHYLNITROSAMINE, 55-18-5, Doses [Carcinogen]: 0.015% IN DRINKING WATER FOR 3 WK, Doses [Promoter]: 0, 0.02% IN DIET (12 MG/KG/D) FOR 30 WK BEGINNING 2 WK AFTER LAST CARCINOGEN DOSE (STUDY DURATION: 35 WK), Route [Carcinogen]: ORAL, Route [Promoter]: ORAL, Species: RAT, Strain/Sex: F344/FEMALE) “liver: hepatocellular carcinoma”.

On to `c1ccc(-c2ccccc2)cc1`, for which the outcome (Carcinogen: N-BUTYL-N-(4-HYDROXYBUTYL)NITROSAMINE, 3817-11-6, Doses [Carcinogen]: 0.05% IN DRINKING WATER FOR 4 WK, Doses [Promoter]: 0, 0.5% IN DIET FOR 32 WK BEGINNING POST CARCINOGEN TREATMENT (STUDY DURATION: 36 WK), Route [Carcinogen]: ORAL, Route [Promoter]: ORAL, Species: RAT, Strain/Sex: F344/MALE) is on record as “urinary bladder: papilloma, carcinoma”.

In the case of `CC1=C(/C=C/C(C)=C/C=C/C(C)=C\C(=O)O)C(C)(C)CCC1`, where the note is “Carcinogen: ETHYLNITROSOUREA [759-73-9], Doses [Carcinogen]: 120 UG/KG ONCE, Doses [Promoter]: 200 MG/KG FEED FOR 60 WK (STUDY DURATION: 60 WK), Route [Carcinogen]: IP INJECTION, Route [Promoter]: DIET, Species: MOUSE, Strain/Sex: B6C3F1/MALE (?,44)/(?,35)”, the outcome was “liver: hepatocellular carcinoma”. For `O=[Se](O)O`, the outcome is listed as “stomach: gastric cancer” (Carcinogen: N-METHYL-N'-NITRO-N-NITROSOGUANIDINE [70-25-7], Doses [Carcinogen]: 20 MG/KG BW DAILY FOR 10 D, Doses [Promoter]: 0, 2, 4 MG/L 1 WK BEFORE MNNG (STUDY DURATION: 43 WKS), Doses [Promoter]: 0, 2, 4 MG/L 1 WK BEFORE MNNG (STUDY DURATION: 43 WKS), Route [Carcinogen]: GAVAGE?, Route [Promoter]: DRINKING WATER, Species: RAT, Strain/Sex: WISTAR/MALE) and “stomach: gastric leiomyoma” (Doses [Carcinogen]: 20 MG/KG/D FOR 10 D, Doses [Promoter]: 2, 4 MG/L WATER ONE WK BEFORE CARCINOGEN (STUDY DURATION: 43 WK), Route [Carcinogen]: GAVAGE, Route [Promoter]: DRINKING WATER, Species: RAT, Strain/Sex: WISTAR (15/GROUP)). With `CC1=C[C@H]2[C@@]3(O)[C@H](C)[C@@H](O)[C@]4(O)[C@H]([C@@H]3C=C(CO)C[C@]2(O)C1=O)C4(C)C`, the outcome reads like this: (Carcinogen: 2-(ACETYLAMINO)FLUORINE, Doses [Carcinogen]: TRANS-PLACENTAL, Route [Carcinogen]: TRANS-PLACENTAL, Route [Promoter]: INTRAPERITONEAL, Species: MOUSE, Strain/Sex: C57BL/MALE,FEMALE) “liver”; (Carcinogen: 7,12-DIMETHYLBENZ(A)ANTHRACENE, Doses [Carcinogen]: IG, Route [Carcinogen]: GAVAGE, Route [Promoter]: INTRAPERITONEAL, Species: RAT, Strain/Sex: FEMALE) “mammary glands; hematopoietic system (leukemia, thymic)”; (Carcinogen: 7,12-DIMETHYLBENZ(A)ANTHRACENE, Doses [Carcinogen]: TOP, Route [Carcinogen]: DERMAL, Route [Promoter]: INTRAPERITONEAL, Species: MOUSE, Strain/Sex: FEMALE) “hematopoietic system (leukemia, nonthymic)”; (Carcinogen: DIMETHYLNITROSAMINE, Doses [Carcinogen]: SC, Route [Carcinogen]: SUBCUTANEOUS, Route [Promoter]: INTRAPERITONEAL, Species: MOUSE, Strain/Sex: MALE,FEMALE) “lung; liver”.

For `CNCCCN1c2ccccc2CCc2ccccc21`, under “Carcinogen: AZOXYMETHANE, 25843-45-2, Doses [Carcinogen]: 7.4 MG/KG BW IN 0.9% SALINE 1/WK FOR 10 WK, Doses [Promoter]: 0, 10 MG/KG BW IN 0.9% SALINE 1/2 D FOR 10 WK ON SAME DAY AS CARCINOGEN ADMINISTRATION (STUDY DURATION: 35 WK), Route [Carcinogen]: SUBCUTANEOUS, Route [Promoter]: SUBCUTANEOUS, Species: RAT, Strain/Sex: WISTAR/MALE”, the outcome is listed as “colon: tumor”. With `CCCCCCCCCCCCCC(=O)O[C@@]12C[C@@H](C)[C@@]3(O)[C@@H](C=C(CO)C[C@]4(O)C(=O)C(C)=C[C@@H]34)[C@@H]1C2(C)C`, the outcome (Carcinogen: 7,12-DIMETHYLBENZ[A]ANTHRACENE, 57-97-6, Doses [Carcinogen]: 100 NMOL ONCE, Doses [Promoter]: 0, 80 NMOL 2/WK FOR 42 WK (STUDY DURATION: 42 WK), Route [Carcinogen]: DERMAL, Route [Promoter]: DERMAL, Species: MOUSE, Strain/Sex: NMRI) is “skin: tumor”. On to `CCCCCCCCCCCCCCCCCCCCCCCCCCCC`, for which the outcome (Carcinogen: 7,12-DIMETHYLBENZ(A)ANTHRACENE, Doses [Carcinogen]: TOP, Route [Carcinogen]: DERMAL, Route [Promoter]: DERMAL, Species: MOUSE, Strain/Sex: MALE) is “integumentary system (skin)”. As for `C[C@]12CC[C@H]3[C@@H](CCC4=CC(=O)CC[C@@]43C)[C@@H]1CC[C@@H]2O`, the outcome (Carcinogen: DIETHYLNITROSAMINE, 55-18-5, Doses [Carcinogen]: 2.5 UG/G BW IN SALINE ONCE, Doses [Promoter]: 0, 0.5-1 MG IN PELLET IMPLANTED 1/MONTH FOR 30 WK BEGINNING 30 D POST CARCINOGEN TREATMENT. DOSING BEGAN SAME DAY OF BIL, Route [Carcinogen]: INTRAPERITIONEAL, Route [Promoter]: SUBCUTANEOUS, Species: MOUSE, Strain/Sex: B6C3F1/FEMALE) is reported as “liver: tumor”.
